From patent US5789434A, “Derivatives of substituted 4-biarylbutyric acid as matrix metalloprotease inhibitors” (priority 1995, dated 1998)

What was measured:
Type in all cases: biochemical
[1] = molecular target: T1, MMP-3 (Homo sapiens, UniProt P08254); assay: Automated MMP Profiling Assay, MMP-3 fluorogenic; conditions: for IC50: 96-well automated, P218
T1 construct: Truncated Prostromelysin-257 was expressed in a soluble form in E.coli; made in house; host or cells: E. coli
Source text: This assay with each invention compound was run with the three enzymes MMP-3, MMP-9 and MMP-2 in parallel as adapted for a 96-well microtitre plate using a Hamilton A® workstation.

[2] = molecular target: T2, MMP-2 (Homo sapiens, UniProt P08253); assay: Automated MMP Profiling Assay, MMP-2 fluorogenic; conditions: for IC50: 96-well automated, P218, read-out: MMP-2 Fluorogenic IC50 (profiling)
T2 sequence (P08253 110-660): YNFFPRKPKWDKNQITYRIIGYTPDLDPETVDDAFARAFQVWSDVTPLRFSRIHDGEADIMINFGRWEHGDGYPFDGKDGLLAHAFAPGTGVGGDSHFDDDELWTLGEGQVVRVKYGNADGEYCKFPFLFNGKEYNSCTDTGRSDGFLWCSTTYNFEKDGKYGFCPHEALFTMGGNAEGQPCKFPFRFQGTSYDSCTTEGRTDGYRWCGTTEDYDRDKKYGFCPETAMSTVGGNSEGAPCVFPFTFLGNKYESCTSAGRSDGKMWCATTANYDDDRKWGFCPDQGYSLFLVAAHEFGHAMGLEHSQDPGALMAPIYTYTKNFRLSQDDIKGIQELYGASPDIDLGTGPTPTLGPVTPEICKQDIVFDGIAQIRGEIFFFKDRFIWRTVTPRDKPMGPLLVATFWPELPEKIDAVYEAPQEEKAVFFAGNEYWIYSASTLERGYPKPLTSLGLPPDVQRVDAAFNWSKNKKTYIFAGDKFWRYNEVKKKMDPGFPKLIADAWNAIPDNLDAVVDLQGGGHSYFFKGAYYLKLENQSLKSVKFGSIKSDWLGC

[3] = molecular target: T3, MMP-9 (Homo sapiens, UniProt P14780); assay: Automated MMP Profiling Assay, MMP-9 fluorogenic; conditions: for IC50: 96-well automated, P218
T3 construct: from tissue; host or cells: human polymorphonuclear leukocytes (PMN) from whole blood (New York Blood Center), PMA-stimulated supernatant
T3 sequence (P14780 107-707 limits assumed): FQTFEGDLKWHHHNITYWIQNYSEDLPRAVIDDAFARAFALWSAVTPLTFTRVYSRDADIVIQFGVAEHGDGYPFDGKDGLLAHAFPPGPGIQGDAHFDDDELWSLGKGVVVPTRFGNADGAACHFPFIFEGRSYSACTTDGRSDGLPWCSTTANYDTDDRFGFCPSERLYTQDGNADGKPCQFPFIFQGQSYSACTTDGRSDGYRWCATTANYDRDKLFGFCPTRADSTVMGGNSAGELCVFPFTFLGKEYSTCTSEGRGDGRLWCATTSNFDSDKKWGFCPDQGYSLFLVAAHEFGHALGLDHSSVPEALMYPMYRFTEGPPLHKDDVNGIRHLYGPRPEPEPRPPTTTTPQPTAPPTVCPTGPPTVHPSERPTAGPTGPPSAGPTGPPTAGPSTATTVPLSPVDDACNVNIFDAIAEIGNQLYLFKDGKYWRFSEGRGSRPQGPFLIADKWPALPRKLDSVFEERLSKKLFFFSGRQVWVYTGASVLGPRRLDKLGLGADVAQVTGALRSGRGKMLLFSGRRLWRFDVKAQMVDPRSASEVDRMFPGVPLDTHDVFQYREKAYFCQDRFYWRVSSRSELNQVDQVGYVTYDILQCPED

T1 sequence (P08254 100-274 limits assumed): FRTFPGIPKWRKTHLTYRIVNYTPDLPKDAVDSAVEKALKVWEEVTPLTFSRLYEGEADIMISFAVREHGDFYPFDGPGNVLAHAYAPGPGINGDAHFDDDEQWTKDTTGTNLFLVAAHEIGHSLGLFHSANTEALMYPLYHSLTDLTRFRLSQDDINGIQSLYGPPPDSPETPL

| Structure (SMILES) | IC50 [1] [µM] | IC50 [2] [µM] | IC50 [3] [µM] | inhibition at 5 µM [1] [%] | inhibition at 5 µM [3] [%] | inhibition at 5 µM ([2]; at 5 μM) [%] |
| --- | --- | --- | --- | --- | --- | --- |
| O=C(CC(CCN1C(=O)c2ccccc2C1=O)C(=O)O)c1ccc(-c2ccc(Br)cc2)cc1 (stereo not drawn) [Example 270] | 0.006 | 0.0014 | 0.0016 | – | – | – |
| O=C(CC(CCN1C(=O)c2cccc(O)c2C1=O)C(=O)O)c1ccc(-c2ccc(Cl)cc2)cc1 (stereo not drawn) [Example 421, 2H-Isoindole-2-butanoic acid, α-[2-(4'chloro[1,1'-biphenyl]-4-yl)-2-oxoethyl]-1,3-dihydro-4-hydroxy-1,3-dioxo-] | 0.012 | 0.00075 | 0.0017 | – | – | – |
| O=C(O)[C@@H]1[C@@H](C(=O)c2ccc(-c3ccc(Cl)cc3)cc2)[C@H]2C=C[C@@H]1C2 (relative stereo) [Example 177, Bicyclo[2.2.1]hept-5-ene-2-carboxylic acid, 3-[(4'-chloro[1,1'-biphenyl]-4-yl)carbonyl]-, (2-endo-,3-endo)-] | – | 4.33 | – | 11 | 30 | – |
| CCCCCOc1ccc(-c2ccc(C(=O)[C@H]3CC[C@@H](Sc4ccccc4)[C@@H]3C(=O)O)cc2)cc1 (single isomer, unassigned) [Example 320, Cyclopentanecarboxylic acid, 2-[[4'-(pentyloxy)[1,1'-biphenyl]-4-yl]carbonyl]-5-(phenylthio)-, (1α,2β,5β)-(-)-] | – | – | – | 6 | 6 | 24 |
| CCCCCOc1ccc(-c2ccc(C(=O)C3CCC=C3C(=O)O)cc2)cc1 (stereo not drawn) [Example 442, 1-Cyclopentene-1-carboxylic acid, 5-[[4'-(pentyloxy)[1,1'-biphenyl]-4-yl]carbonyl]-] | 2.76 | 0.962 | – | – | 40 | – |
| CCCCCOc1ccc(-c2ccc(C(=O)CC(CCc3cccc(I)c3)C(=O)O)cc2)cc1 (stereo not drawn) [Example 162, [1,1'-Biphenyl]-4-butanoic acid, α-[2-(3-iodophenyl)ethyl]-γ-oxo-4'-(pentyloxy)-] | 0.181 | 0.022 | – | – | 8 | – |
| COc1ccc(COc2ccc(-c3ccc(C(=O)CC(CCCc4ccccc4)C(=O)O)cc3)cc2)cc1 (stereo not drawn) [Example 105, [1,1'-Biphenyl]-4-butanoic acid, 4'-[(4-methoxyphenyl)methoxy]-γ-oxo-α-(3-phenylpropyl)-] | 0.033 | 0.014 | – | – | 37 | – |
| CC(C)COC(=O)N1CC[C@H](C(=O)c2ccc(-c3ccc(Cl)cc3)cc2)[C@H]1C(=O)O [Example 172, 1,2-PYrrolidinecarboxylic acid, 3-[(4'-chloro[1,1'-biphenyl]-4-yl)carbonyl]-, 1-(2-methylpropyl) ester, (2S-trans)-] | 0.456 | 0.175 | 1.93 | – | – | – |
| O=C(CC(CCCc1ccccc1)C(=O)O)c1ccc(-c2ccc(OCc3cccnc3)cc2)cc1 (stereo not drawn) [Example 109, [1,1'-Biphenyl]-4-butanoic acid, γ-oxo-α-(3-phenylpropyl)-4'-(3-pyridinylmethoxy)-] | 0.028 | 0.0066 | 1.29 | – | – | – |
| Cc1ccccc1C(=O)OC[C@@H]1CC[C@H](C(=O)c2ccc(-c3ccc(Cl)cc3)cc2)[C@H]1C(=O)O (relative stereo) [Example 378, Benzoic acid, 2-methyl-, [2-carboxy-3-[(4'-chloro[1,1'-biphenyl]-4-yl)carbonyl]cyclopentyl]methyl ester, (1α,2β,3α)-] | 0.077 | 0.043 | 0.083 | – | – | – |
| O=C(CC(CCCc1ccccc1)C(=O)O)c1ccc(-c2ccc(OCCc3ccccc3)cc2)cc1 (stereo not drawn) [Example 102, [1,1'-Biphenyl]-4-butanoic acid, γ-oxo-4'-(2-phenylethoxy)-α-(3-phenylpropyl)-] | 0.078 | 0.025 | 0.698 | – | – | – |
| COc1ccc(C(=O)OC[C@@H]2CC[C@H](C(=O)c3ccc(-c4ccc(Cl)cc4)cc3)[C@H]2C(=O)O)cc1 (relative stereo) [Example 383, Benzoic acid, 4-methoxy-, [2-carboxy-3-[(4'-chloro[1,1'-biphenyl]-4-yl)carbonyl]cyclopentyl]methyl ester, (1α,2β,3α)-] | 0.058 | 0.11 | 0.053 | – | – | – |
| CCCOc1ccc2c(c1)C(=O)N(CCC(CC(=O)c1ccc(-c3ccc(Cl)cc3)cc1)C(=O)O)C2=O (stereo not drawn) [Example 406, 2H-Isoindole-2-butanoic acid, α-[2-(4'-chloro[1,1'-biphenyl]-4-yl)-2-oxoethyl]-1,3-dihydro-1,3-dioxo-5-propoxy-] | 0.0103 | 0.017 | 0.0017 | – | – | – |
| O=C(CC(CCN1C(=O)c2cccc3cccc(c23)C1=O)C(=O)O)c1ccc(-c2ccc(Cl)cc2)cc1 (stereo not drawn) [Example 410, 1H-Benz[de]isoquinoline-2(3H)-butanoic acid, α-[2-(4'-chloro[1,1'-biphenyl]-4-yl)-2-oxoethyl]-1,3-dioxo-] | 0.104 | 0.08 | 0.044 | – | – | – |
| O=C(O)[C@H]1[C@H](CSc2nc3ccccc3s2)CC[C@@H]1C(=O)c1ccc(-c2ccc(Cl)cc2)cc1 (relative stereo) [Example 375, Cyclopentanecarboxylic acid, 2-[(2-benzothiazolylthio)methyl]-5-[(4'-chloro[1,1'-biphenyl]-4-yl)carbonyl]-, (1α,2β,5β)-] | 0.116 | 0.068 | 0.146 | – | – | – |
| O=C(O)c1ccc(CCC(CC(=O)c2ccc(-c3ccc(Cl)cc3)cc2)C(=O)O)cc1 (stereo not drawn) [Example 153, [1,1'-Biphenyl]-4-butanoic acid, α-[2-(4-carboxyphenyl)ethyl]-4'-chloro-γ-oxo-] | 0.594 | 0.127 | 1.01 | – | – | – |
| O=C(c1ccc(-c2ccc(Cl)cc2)cc1)[C@H]1CCN(C(=O)NCc2ccccc2)[C@@H]1C(=O)O [Example 168, L-Proline, 3-[(4'-chloro[1,1'-biphenyl]-4-yl)carbonyl]-1-[[(phenylmethyl)amino]carbonyl]-, trans-] | 0.049 | 0.015 | 0.163 | – | – | – |
| Cc1cccc(C(=O)OC[C@@H]2CC[C@H](C(=O)c3ccc(-c4ccc(Cl)cc4)cc3)[C@H]2C(=O)O)c1 (relative stereo) [Example 379, Benzoic acid, 3-methyl-, [2-carboxy-3-[(4'-chloro[1,1'-biphenyl]-4-yl)carbonyl]cyclopentyl]methyl ester, (1α,2β,3α)-] | 0.063 | 0.092 | 0.048 | – | – | – |
| O=C(C[C@H](CS(=O)(=O)c1ccccc1)C(=O)O)c1ccc(-c2ccc(Cl)cc2)cc1 [Example 314, [1,1'-Biphenyl]-4-butanoic acid, 4'-chloro-γ-oxo-α-[(phenylsulfonyl)methyl]-, (S)-] | 0.399 | 0.013 | 0.555 | – | – | – |
| CCOc1ccc(-c2ccc(C(=O)CC(CCN3C(=O)c4ccccc4C3=O)C(=O)O)cc2)cc1 (stereo not drawn) [Example 273, 2H-Isoindole-2-butanoic acid, α-[2-(4'-ethoxy[1,1'-biphenyl]-4-yl)-2-oxoethyl]-1,3-dihydro-1,3-dioxo-] | 0.021 | 0.00227 | 0.00125 | – | – | – |
| O=C(c1ccc(-c2ccc(Cl)cc2)cc1)[C@H]1CCN(C(=O)CCc2ccccc2)[C@@H]1C(=O)O [Example 169, L-Proline, 3-[(4'-chloro[1,1'-biphenyl]-4-yl)carbonyl]-1-(1-oxo-3-phenylpropyl)-, trans-] | 0.245 | 0.08 | 1.08 | – | – | – |
| CCCCC(=O)Nc1ccc(-c2ccc(C(=O)CC(CCc3ccccc3)C(=O)O)cc2)cc1 (stereo not drawn) [Example 140, [1,1'-Biphenyl]-4-butanoic acid, γ-oxo-4'-[(1-oxopentyl)amino]-α-(2-phenylethyl)-] | 1.03 | 0.242 | > 1.25 | – | – | – |
| COc1cccc(C(=O)OC[C@@H]2CC[C@H](C(=O)c3ccc(-c4ccc(Cl)cc4)cc3)[C@H]2C(=O)O)c1 (relative stereo) [Example 382, Benzoic acid, 3-methoxy-, [2-carboxy-3-[(4'-chloro[1,1'-biphenyl]-4-yl)carbonyl]cyclopentyl]methyl ester, (1α,2β,3α)-] | 0.042 | 0.064 | 0.039 | – | – | – |
| O=C(O)[C@H]1[C@H](COc2ccccc2)CC[C@@H]1C(=O)c1ccc(-c2ccc(Cl)cc2)cc1 (relative stereo) [Example 366, Cyclopentanecarboxylic acid, 2-[(4'-chloro[1,1'-biphenyl]-4-yl)carbonyl]-5-(phenoxymethyl)-, (1α,2β,5β)-] | 0.022 | 0.0067 | 0.056 | – | – | – |
| CCCOc1ccc(-c2ccc(C(=O)CC(CCc3ccccc3)C(=O)O)cc2)cc1 (stereo not drawn) [Example 157, [1,1'-Biphenyl]-4-butanoic acid, γ-oxo-α-(2-phenylethyl)-4'-propoxy-] | 0.111 | 0.035 | 0.142 | – | – | – |
| O=C(CC(CCN1C(=O)CCC1=O)C(=O)O)c1ccc(-c2ccc(Cl)cc2)cc1 (stereo not drawn) [Example 411, 1-Pyrrolidinebutanoic acid, α-[2-(4'-chloro[1,1'-biphenyl]-4-yl)-2-oxoethyl]-2,5-dioxo-] | 0.116 | 0.027 | 0.213 | – | – | – |
